Literature values as cited in patent US20120058942A1, “METHODS FOR CONTROLLING BLOOD-GLUCOSE LEVELS IN INSULIN-REQUIRING SUBJECTS” (priority 2010, published 2012).
No end group written: not given here.

Tests used:
[1] = humans with diabetes mellitus
[2] = human volunteers, insulin-treated T1D

Row | Substance | stimulation of insulin secretion [1] | rise in blood glucose that accompanies absorption of a standard meal ([2]; continued insulin by IIT) | absorption of the meal ([2]; standard meal) | secretion of glucagon ([2]; standard meal)
1 | gastric-inhibitory polypeptide (YAEGTFISDYSIAMDKIHQQDFVNWLLAQKGKKNDWKHNITQ; Gastric inhibitory polypeptide; UniProt P09681 52-93, looked up) [GIP, insulin-stimulating hormone of the entero-insular axis] | failed to stimulate insulin secretion |  |  | 
2 | Glucagon-like peptide-1 (HAEGTFTSDVSSYLEGQAAKEFIAWLVKGR; ends and bridges not checked; UniProt P01275 98-127, looked up) [GLP-1, incretin; post-translational product of the glucagon gene in the intestinal L-cell] | capable of stimulating insulin secretion | powerfully restrict the rise in blood glucose | delay in absorption of the meal | suppression of secretion of glucagon
